Data: paper PMC8298439, “Development of a mechanistic model to predict synthetic biotic activity in healthy volunteers and patients with phenylketonuria” (Communications Biology, 2021)

Molecular target: T1, PAL (phenylalanine ammonia lyase) of SYNB1618 (Photorhabdus laumondii, UniProt Q7N4T3)
T1 construct: gene plu2234; expressed in cytosol of engineered E. coli Nissle 1917 (SYNB1618, with PheP transporter, dapA deleted); whole-cell assay, LAAD not induced; multimeric
Test: d5-TCA formation from d5-Phe by whole SYNB1618 cells, LC-MS/MS
Type: cell-based
Conditions: whole-cell product (feedback) inhibition; 20 mM d5-Phe; 0.0–8.0 mM exogenous unlabeled TCA; 60 min

T1 sequence (Q7N4T3 entry or part of it): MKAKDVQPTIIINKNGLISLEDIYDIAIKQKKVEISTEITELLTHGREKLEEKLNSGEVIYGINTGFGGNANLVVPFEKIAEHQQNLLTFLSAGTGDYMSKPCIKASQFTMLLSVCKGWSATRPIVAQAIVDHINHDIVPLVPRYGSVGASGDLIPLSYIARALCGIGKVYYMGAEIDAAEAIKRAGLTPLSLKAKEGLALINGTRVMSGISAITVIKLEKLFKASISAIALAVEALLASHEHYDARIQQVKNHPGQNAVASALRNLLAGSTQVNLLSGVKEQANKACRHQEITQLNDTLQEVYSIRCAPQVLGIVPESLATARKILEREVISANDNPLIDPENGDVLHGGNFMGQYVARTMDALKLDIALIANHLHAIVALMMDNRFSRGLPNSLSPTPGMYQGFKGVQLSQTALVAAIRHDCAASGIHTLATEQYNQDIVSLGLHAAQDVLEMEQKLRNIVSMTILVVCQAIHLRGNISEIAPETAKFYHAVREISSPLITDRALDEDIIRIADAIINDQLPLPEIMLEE

O=C(O)/C=C/c1ccccc1 [TCA]
% decrease of de novo d5-TCA production: up to 60
